{"source": "patent US8802597B2", "about": "“Herbicidal pyrimidines” (E I du Pont de Nemours and Company, priority 2003, dated 2014)", "assay_type_in_all_cases": "in vivo", "key": {"[1]": {"system": "lambsquarters (Chenopodium album)", "test": "Test B pre/postemergence", "summary_of_the_method": "(§1)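 Visual rating, 0 (no effect) to 100 (complete control) versus controls, taken 13–15 days after treatment in greenhouse. Compounds formulated in non-phytotoxic solvent plus surfactant; pre: sprayed after seeding; post: plants at 1- to 4-leaf stage, 2–18 cm.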"}, "[2]": {"system": "barnyardgrass (Echinochloa crus-galli)", "test": "Test B pre/postemergence", "summary_of_the_method": "as §1"}, "[3]": {"system": "giant foxtail (Setaria faberii)", "test": "Test B pre/postemergence", "summary_of_the_method": "as §1"}, "[4]": {"system": "crabgrass (Digitaria sanguinalis)", "test": "Test B pre/postemergence", "summary_of_the_method": "as §1"}, "[5]": {"system": "morningglory (Ipomoea coccinea)", "test": "Test B pre/postemergence", "summary_of_the_method": "as §1"}, "[6]": {"system": "wheat (Triticum aestivum)", "test": "Test B pre/postemergence", "summary_of_the_method": "as §1"}, "corn (Zea mays)": {"system": "corn (Zea mays)", "test": "Test B pre/postemergence", "summary_of_the_method": "as §1"}, "[7]": {"system": "Surinam grass (Brachiaria decumbens)", "test": "Test B pre/postemergence", "summary_of_the_method": "as §1"}, "[8]": {"system": "cocklebur (Xanthium strumarium)", "test": "Test B pre/postemergence", "summary_of_the_method": "as §1"}, "[9]": {"system": "velvetleaf (Abutilon theophrasti)", "test": "Test B pre/postemergence", "summary_of_the_method": "as §1"}, "[10]": {"system": "pigweed (Amaranthus retroflexus)", "test": "Test B pre/postemergence", "summary_of_the_method": "as §1"}, "wild oat (Avena fatua)": {"system": "wild oat (Avena fatua)", "test": "Test B postemergence", "conditions": "for Oat, Wild plant response rating: 125 g ai/ha, scale 0 to 100 (0 no effect, 100 complete control); for Plant response rating, Oat, Wild: 500 g ai/ha, scale 0 to 100", "summary_of_the_method": "as §1"}, "[11]": {"system": "blackgrass (Alopecurus myosuroides)", "test": "Test B postemergence", "conditions": "for Blackgrass plant response rating: 125 g ai/ha, scale 0 to 100 (0 no effect, 100 complete control); for Plant response rating, Blackgrass: 500 g ai/ha, scale 0 to 100", "summary_of_the_method": "as §1"}, "[12]": {"system": "barnyardgrass (Echinochloa crus-galli)", "test": "Test B flooded paddy test", "conditions": "Flood, 1000 g ai/ha; scale 0 (no effect) to 100 (complete control)", "summary_of_the_method": "(§2)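 Plants were grown to the 2-leaf stage before treatment, then kept in a greenhouse for 13 to 15 days. Injury was rated visually against untreated controls on a 0 to 100 scale, where 0 is no effect and 100 is complete control.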"}, "[13]": {"system": "duck salad (Heteranthera limosa)", "test": "Test B flooded paddy test", "conditions": "Flood, 1000 g ai/ha; scale 0 to 100", "summary_of_the_method": "as §2"}, "[14]": {"system": "umbrella sedge (Cyperus difformis)", "test": "Test B flooded paddy test", "conditions": "Flood, 1000 g ai/ha; scale 0 to 100", "summary_of_the_method": "as §2"}, "rice (Oryza sativa)": {"system": "rice (Oryza sativa)", "test": "Test B flooded paddy test", "conditions": "Flood, 1000 g ai/ha; scale 0 to 100", "summary_of_the_method": "as §2"}, "[15]": {"conditions": "Postemergence, 125 g ai/ha, scale 0 to 100 (0 no effect, 100 complete control)"}, "[16]": {"conditions": "Postemergence, 500 g ai/ha, scale 0 to 100"}, "[17]": {"conditions": "Preemergence, 500 g ai/ha, scale 0 to 100 (0 no effect, 100 complete control)"}, "[18]": {"conditions": "Preemergence, 125 g ai/ha, scale 0 to 100 (0 no effect, 100 complete control)"}}}
{"compound": "COC(=O)c1nc(-c2ccc(C(F)(F)F)cc2)nc(N)c1Cl", "note": "[Compound 44]", "values": [{"measurement": "Lambsquarters plant response rating", "setting": "[1]; [15]", "result": 90}, {"measurement": "Plant response rating, Lambsquarters", "setting": "[1]; [16]", "result": 90}, {"measurement": "Lambsquarters plant response rating", "setting": "[1]; [17]", "result": 60}, {"measurement": "Barnyardgrass plant response rating", "setting": "[2]; [15]", "result": 40}, {"measurement": "Plant response rating, Barnyardgrass", "setting": "[2]; [16]", "result": 50}, {"measurement": "Plant response rating, Barnyardgrass", "setting": "[2]; [18]", "result": 0}, {"measurement": "Barnyardgrass plant response rating", "setting": "[2]; [17]", "result": 10}, {"measurement": "Plant response rating, Foxtail, Giant", "setting": "[3]; [18]", "result": 20}, {"measurement": "Foxtail, Giant plant response rating", "setting": "[3]; [17]", "result": 40}, {"measurement": "Crabgrass plant response rating", "setting": "[4]; [15]", "result": 70}, {"measurement": "Plant response rating, Crabgrass", "setting": "[4]; [16]", "result": 80}, {"measurement": "Plant response rating, Crabgrass", "setting": "[4]; [18]", "result": 40}, {"measurement": "Crabgrass plant response rating", "setting": "[4]; [17]", "result": 80}, {"measurement": "Morningglory plant response rating", "setting": "[5]; [15]", "result": 80}, {"measurement": "Plant response rating, Morningglory", "setting": "[5]; [16]", "result": 100}, {"measurement": "Plant response rating, Morningglory", "setting": "[5]; [18]", "result": 10}, {"measurement": "Morningglory plant response rating", "setting": "[5]; [17]", "result": 40}, {"measurement": "Wheat plant response rating", "setting": "[6]; [15]", "result": 0}, {"measurement": "Plant response rating, Wheat", "setting": "[6]; [16]", "result": 30}, {"measurement": "Plant response rating, Wheat", "setting": "[6]; [18]", "result": 30}, {"measurement": "Plant response rating, Wheat", "setting": "[6]; [17]", "result": 60}, {"measurement": "Corn plant response rating", "setting": "corn (Zea mays); [15]", "result": 30}, {"measurement": "Plant response rating, Corn", "setting": "corn (Zea mays); [16]", "result": 70}, {"measurement": "Plant response rating, Corn", "setting": "corn (Zea mays); [18]", "result": 0}, {"measurement": "Corn plant response rating", "setting": "corn (Zea mays); [17]", "result": 0}, {"measurement": "Plant response rating, Surinam Grass", "setting": "[7]; [16]", "result": 50}, {"measurement": "Plant response rating, Surinam Grass", "setting": "[7]; [18]", "result": 40}, {"measurement": "Surinam Grass plant response rating", "setting": "[7]; [17]", "result": 60}, {"measurement": "Cocklebur plant response rating", "setting": "[8]; [15]", "result": 90}, {"measurement": "Plant response rating, Cocklebur", "setting": "[8]; [16]", "result": 100}, {"measurement": "Plant response rating, Cocklebur", "setting": "[8]; [18]", "result": 10}, {"measurement": "Cocklebur plant response rating", "setting": "[8]; [17]", "result": 80}, {"measurement": "Velvetleaf plant response rating", "setting": "[9]; [15]", "result": 80}, {"measurement": "Plant response rating, Velvetleaf", "setting": "[9]; [16]", "result": 90}, {"measurement": "Plant response rating, Velvetleaf", "setting": "[9]; [18]", "result": 30}, {"measurement": "Velvetleaf plant response rating", "setting": "[9]; [17]", "result": 80}, {"measurement": "Pigweed plant response rating", "setting": "[10]; [15]", "result": 80}, {"measurement": "Plant response rating, Pigweed", "setting": "[10]; [16]", "result": 90}, {"measurement": "Plant response rating, Pigweed", "setting": "[10]; [18]", "result": 70}, {"measurement": "Pigweed plant response rating", "setting": "[10]; [17]", "result": 80}, {"measurement": "Oat, Wild plant response rating", "setting": "wild oat (Avena fatua)", "result": 0}, {"measurement": "Plant response rating, Oat, Wild", "setting": "wild oat (Avena fatua)", "result": 0}, {"measurement": "Blackgrass plant response rating", "setting": "[11]", "result": 30}, {"measurement": "Plant response rating, Blackgrass", "setting": "[11]", "result": 40}, {"measurement": "Plant response rating, Barnyardgrass", "setting": "[12]", "result": 0}, {"measurement": "Plant response rating, Ducksalad", "setting": "[13]", "result": 90}, {"measurement": "Plant response rating, Sedge, Umbrella", "setting": "[14]", "result": 80}, {"measurement": "Plant response rating, Rice", "setting": "rice (Oryza sativa)", "result": 0}]}
{"compound": "CN(C)N=Cc1nc(C2CC2)nc(N)c1Br", "note": "[Compound 50]", "values": [{"measurement": "Lambsquarters plant response rating", "setting": "[1]; [15]", "result": 80}, {"measurement": "Plant response rating, Lambsquarters", "setting": "[1]; [16]", "result": 90}, {"measurement": "Plant response rating, Lambsquarters", "setting": "[1]; [18]", "result": 90}, {"measurement": "Plant response rating, Lambsquarters", "setting": "[1]; [17]", "result": 100}, {"measurement": "Barnyardgrass plant response rating", "setting": "[2]; [15]", "result": 10}, {"measurement": "Plant response rating, Barnyardgrass", "setting": "[2]; [16]", "result": 50}, {"measurement": "Plant response rating, Barnyardgrass", "setting": "[2]; [18]", "result": 30}, {"measurement": "Plant response rating, Barnyardgrass", "setting": "[2]; [17]", "result": 50}, {"measurement": "Foxtail, Giant plant response rating", "setting": "[3]; [15]", "result": 20}, {"measurement": "Plant response rating, Foxtail, Giant", "setting": "[3]; [16]", "result": 70}, {"measurement": "Plant response rating, Foxtail, Giant", "setting": "[3]; [18]", "result": 10}, {"measurement": "Plant response rating, Foxtail, Giant", "setting": "[3]; [17]", "result": 40}, {"measurement": "Crabgrass plant response rating", "setting": "[4]; [15]", "result": 40}, {"measurement": "Plant response rating, Crabgrass", "setting": "[4]; [16]", "result": 80}, {"measurement": "Plant response rating, Crabgrass", "setting": "[4]; [18]", "result": 50}, {"measurement": "Plant response rating, Crabgrass", "setting": "[4]; [17]", "result": 80}, {"measurement": "Morningglory plant response rating", "setting": "[5]; [15]", "result": 90}, {"measurement": "Plant response rating, Morningglory", "setting": "[5]; [16]", "result": 90}, {"measurement": "Plant response rating, Morningglory", "setting": "[5]; [18]", "result": 80}, {"measurement": "Plant response rating, Morningglory", "setting": "[5]; [17]", "result": 90}, {"measurement": "Wheat plant response rating", "setting": "[6]; [15]", "result": 30}, {"measurement": "Plant response rating, Wheat", "setting": "[6]; [16]", "result": 60}, {"measurement": "Plant response rating, Wheat", "setting": "[6]; [18]", "result": 20}, {"measurement": "Plant response rating, Wheat", "setting": "[6]; [17]", "result": 40}, {"measurement": "Corn plant response rating", "setting": "corn (Zea mays); [15]", "result": 0}, {"measurement": "Plant response rating, Corn", "setting": "corn (Zea mays); [16]", "result": 40}, {"measurement": "Plant response rating, Corn", "setting": "corn (Zea mays); [18]", "result": 20}, {"measurement": "Plant response rating, Corn", "setting": "corn (Zea mays); [17]", "result": 20}, {"measurement": "Surinam Grass plant response rating", "setting": "[7]; [15]", "result": 20}, {"measurement": "Plant response rating, Surinam Grass", "setting": "[7]; [16]", "result": 60}, {"measurement": "Plant response rating, Surinam Grass", "setting": "[7]; [18]", "result": 20}, {"measurement": "Plant response rating, Surinam Grass", "setting": "[7]; [17]", "result": 70}, {"measurement": "Cocklebur plant response rating", "setting": "[8]; [15]", "result": 90}, {"measurement": "Plant response rating, Cocklebur", "setting": "[8]; [16]", "result": 90}, {"measurement": "Plant response rating, Cocklebur", "setting": "[8]; [18]", "result": 80}, {"measurement": "Plant response rating, Cocklebur", "setting": "[8]; [17]", "result": 90}, {"measurement": "Velvetleaf plant response rating", "setting": "[9]; [15]", "result": 70}, {"measurement": "Plant response rating, Velvetleaf", "setting": "[9]; [16]", "result": 90}, {"measurement": "Plant response rating, Velvetleaf", "setting": "[9]; [18]", "result": 80}, {"measurement": "Plant response rating, Velvetleaf", "setting": "[9]; [17]", "result": 90}, {"measurement": "Pigweed plant response rating", "setting": "[10]; [15]", "result": 80}, {"measurement": "Plant response rating, Pigweed", "setting": "[10]; [16]", "result": 90}, {"measurement": "Plant response rating, Pigweed", "setting": "[10]; [18]", "result": 70}, {"measurement": "Plant response rating, Pigweed", "setting": "[10]; [17]", "result": 90}, {"measurement": "Oat, Wild plant response rating", "setting": "wild oat (Avena fatua)", "result": 30}, {"measurement": "Plant response rating, Oat, Wild", "setting": "wild oat (Avena fatua)", "result": 60}, {"measurement": "Blackgrass plant response rating", "setting": "[11]", "result": 30}, {"measurement": "Plant response rating, Blackgrass", "setting": "[11]", "result": 50}, {"measurement": "Plant response rating, Barnyardgrass", "setting": "[12]", "result": 30}, {"measurement": "Plant response rating, Ducksalad", "setting": "[13]", "result": 40}, {"measurement": "Plant response rating, Sedge, Umbrella", "setting": "[14]", "result": 0}, {"measurement": "Plant response rating, Rice", "setting": "rice (Oryza sativa)", "result": 30}]}
